Each compound was assayed against Recombinant human ATX (Homo sapiens (Human), UniProt Q13822) (assay: ATX inhibition assay (choline release, Amplex Red fluorescence)). Details: ATX 10 nM, LPC 18:1 10 μM, 37° C., 20 min pre-incubation; mean of n≧2.
Assay type: biochemical
Procedure, shortened: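 Activity was taken from the slope of resorufin fluorescence (530/590 nm, read every 2 min for 40 min at 37 °C) produced by choline liberated from 10 μM oleoyl LPC.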

Structure (SMILES)	IC50
Cc1nnn(Cc2cc(Cl)ccc2/C=C/C(=O)N2CCCC(C(N)=O)C2)n1 (stereo not drawn) [Example 49.8, (E)-1-(3-(4-Chloro-2-((5-methyl-2H-tetrazol-2-yl)methyl)phenyl)acryloyl)piperidine-3-carboxamide]	0.354 µM
Cc1nnn(Cc2cc(OC(F)(F)F)ccc2/C=C/C(=O)N2CCC(c3noc(C)n3)CC2)n1 [Example 3, (E)-1-(4-(5-Methyl-1,2,4-oxadiazol-3-yl)piperidin-1-yl)-3-(2-((5-methyl-2H-tetrazol-2-yl)methyl)-4-(trifluoromethoxy)phenyl)prop-2-en-1-one]	0.012 µM
Cc1nnn(Cc2cc(Cl)ccc2/C=C/C(=O)N2CCN(c3ccn(C)n3)C[C@H]2C)n1 [Example 49.21, (R,E)-3-(4-Chloro-2-((5-methyl-2H-tetrazol-2-yl)methyl)phenyl)-1-(2-methyl-4-(1-methyl-1H-pyrazol-3-yl)piperazin-1-yl)prop-2-en-1-one]	0.016 µM
Cc1nnn(Cc2cc(C(F)(F)F)ccc2/C=C/C(=O)N2C[C@@H](F)C[C@H]2CO)n1 [Example 131, (E)-1-((2S,4S)-4-Fluoro-2-(hydroxymethyl)pyrrolidin-1-yl)-3-(2-((5-methyl-2H-tetrazol-2-yl)methyl)-4-(trifluoromethyl)phenyl)prop-2-en-1-one]	0.023 µM
Cc1nnn(Cc2cc(Cl)ccc2/C=C/C(=O)N2CCC(n3ncnc3C)CC2)n1 [Example 11, (E)-3-(4-Chloro-2-((5-methyl-2H-tetrazol-2-yl)methyl)phenyl)-1-(4-(5-methyl-1H-1,2,4-triazol-1-yl)piperidin-1-yl)prop-2-en-1-one]	0.073 µM
Cc1nnn(Cc2cc(F)ccc2/C=C/C(=O)N2CCC(Cc3nnc(C)o3)CC2)n1 [Example 41, (E)-3-(4-Fluoro-2-((5-methyl-2H-tetrazol-2-yl)methyl)phenyl)-1-(4-((5-methyl-1,3,4-oxadiazol-2-yl)methyl)piperidin-1-yl)prop-2-en-1-one]	0.654 µM
Cc1nnn(Cc2cc(Cl)ccc2/C=C/C(=O)N2CCCC(c3nc(C(C)C)no3)C2)n1 (racemic) [Example 34, (rac)-(E)-3-(4-Chloro-2-((5-methyl-2H-tetrazol-2-yl)methyl)phenyl)-1-(3-(3-isopropyl-1,2,4-oxadiazol-5-yl)piperidin-1-yl)prop-2-en-1-one]	0.029 µM
Cc1nc(Cc2cc(Cl)ccc2/C=C/C(=O)N2CCN(Cc3ccc(F)cc3)C[C@H]2C)no1 [Example 144, (R,E)-3-(4-Chloro-2-((5-methyl-1,2,4-oxadiazol-3-yl)methyl)phenyl)-1-(4-(4-fluorobenzyl)-2-methylpiperazin-1-yl)prop-2-en-1-one]	0.014 µM
Cc1nnn(Cc2cc(C(F)(F)F)ccc2/C=C/C(=O)N2CCC(N(C)S(=O)(=O)c3ccc(F)cc3)CC2)n1 [Example 118, (E)-4-Fluoro-N-methyl-N-(1-(3-(2-((5-methyl-2H-tetrazol-2-yl)methyl)-4-(trifluoromethyl)phenyl)acryloyl)piperidin-4-yl)benzenesulfonamide]	0.024 µM
Cc1nnn(Cc2cc(C(F)(F)F)ccc2/C=C/C(=O)N2CCC(Cc3nnc(C)o3)CC2)n1 [Example 81, (E)-1-(4-((5-Methyl-1,3,4-oxadiazol-2-yl)methyl)piperidin-1-yl)-3-(2-((5-methyl-2H-tetrazol-2-yl)methyl)-4-(trifluoromethyl)phenyl)prop-2-en-1-one]	0.013 µM
Cc1nnn(Cc2cc(C(F)(F)F)ccc2/C=C/C(=O)N2CCCCC2c2noc(C)n2)n1 (single isomer, unassigned) [Example 38b, (R or S, E)-1-(2-(5-methyl-1,2,4-oxadiazol-3-yl)piperidin-1-yl)-3-(2-((5-methyl-2H-tetrazol-2-yl)methyl)-4-(trifluoromethyl)phenyl)prop-2-en-1-one]	0.41 µM
Cc1nnn(Cc2cc(Cl)ccc2/C=C/C(=O)N2CCCCC2c2nc(C(C)C)no2)n1 (single isomer, unassigned) [Example 30b, (R or S, E)-3-(4-chloro-2-((5-methyl-2H-tetrazol-2-yl)methyl)phenyl)-1-(2-(3-isopropyl-1,2,4-oxadiazol-5-yl)piperidin-1-yl)prop-2-en-1-one]	0.1 µM
Cc1noc(Cc2cc(Cl)ccc2/C=C/C(=O)N2CCN(Cc3coc(C)n3)CC2)n1 [Example 76, (E)-3-(4-Chloro-2-((3-methyl-1,2,4-oxadiazol-5-yl)methyl)phenyl)-1-(4-((2-methyloxazol-4-yl)methyl)piperazin-1-yl)prop-2-en-1-one]	0.073 µM

Compounds with a lower IC50, results first:

IC50	Structure (SMILES)
0.0088 µM	Cc1nnn(Cc2cc(C(F)(F)F)ccc2/C=C/C(=O)N2CCCC[C@H]2c2nnc(C)o2)n1 [Example 1, (S,E)-1-(2-(5-Methyl-1,3,4-oxadiazol-2-yl)piperidin-1-yl)-3-(2-((5-methyl-2H-tetrazol-2-yl)methyl)-4-(trifluoromethyl)phenyl)prop-2-en-1-one]
0.01 µM	CCc1nnc(C2CCN(C(=O)/C=C/c3ccc(Cl)cc3Cn3nnc(C)n3)CC2)o1 [Example 94, (E)-3-(4-Chloro-2-((5-methyl-2H-tetrazol-2-yl)methyl)phenyl)-1-(4-(5-ethyl-1,3,4-oxadiazol-2-yl)piperidin-1-yl)prop-2-en-1-one]
0.0092 µM	Cc1nnn(Cc2cc(C(F)(F)F)ccc2/C=C/C(=O)N2CCC(CCOCCc3cnn[nH]3)CC2)n1 [Example 157, (E)-1-(4-(2-(2-(1H-1,2,3-Triazol-5-yl)ethoxy)ethyl)piperidin-1-yl)-3-(2-((5-methyl-2H-tetrazol-2-yl)methyl)-4-(trifluoromethyl)phenyl)prop-2-en-1-one]
0.0055 µM	Cc1csc(C(O)C2CCN(C(=O)/C=C/c3ccc(Cl)cc3Cn3nnc(C)n3)CC2)n1 (stereo not drawn) [Example 63, (E)-3-(4-Chloro-2-((5-methyl-2H-tetrazol-2-yl)methyl)phenyl)-1-(4-(hydroxy(4-methylthiazol-2-yl)methyl)piperidin-1-yl)prop-2-en-1-one]
0.0085 µM	Cc1cnn(C2CCN(C(=O)/C=C/c3ccc(Cl)cc3Cn3nnc(C)n3)CC2)n1 [Example 25, (E)-3-(4-Chloro-2-((5-methyl-2H-tetrazol-2-yl)methyl)phenyl)-1-(4-(4-methyl-2H-1,2,3-triazol-2-yl)piperidin-1-yl)prop-2-en-1-one]
0.0035 µM	Cc1noc(C2CCCCN2C(=O)/C=C/c2ccc(C(F)(F)F)cc2Cn2nnc(C)n2)n1 (single isomer, unassigned) [Example 5a, (R,E)-1-(2-(3-methyl-1,2,4-oxadiazol-5-yl)piperidin-1-yl)-3-(2-((5-methyl-2H-tetrazol-2-yl)methyl)-4-(trifluoromethyl)phenyl)prop-2-en-1-one or (S,E)-1-(2-(3-methyl-1,2,4-oxadiazol-5-yl)piperidin-1-yl)-3-(2-((5-methyl-2H-tetrazol-2-yl)methyl)-4-(trifluoromethyl)phenyl)prop-2-en-1-one]
0.004 µM	Cc1nnn(Cc2cc(Cl)ccc2/C=C/C(=O)N2CCC(c3ncc(C)o3)CC2)n1 [Example 24, (E)-3-(4-Chloro-2-((5-methyl-2H-tetrazol-2-yl)methyl)phenyl)-1-(4-(5-methyloxazol-2-yl)piperidin-1-yl)prop-2-en-1-one]
0.0088 µM	Cc1noc(CC2CCN(C(=O)/C=C/c3ccc(C(F)(F)F)cc3Cn3nnc(C)n3)CC2)n1 [Example 60, (E)-1-(4-((3-Methyl-1,2,4-oxadiazol-5-yl)methyl)piperidin-1-yl)-3-(2-((5-methyl-2H-tetrazol-2-yl)methyl)-4-(trifluoromethyl)phenyl)prop-2-en-1-one]

Reference: patent US9763957B2, “Autotaxin inhibitors” (Novartis AG, priority 2013, dated 2017)
